1 compound from article PMC10906241, “Molecular Insights into O-Linked Sialoglycans Recognition by the Siglec-Like SLBR-N (SLBRUB10712) of Streptococcus gordonii” (ACS Central Science, 2024) can be followed below.

The Kd is the free concentration of one partner at which half of the binding sites on the other are occupied at equilibrium, for simple one-to-one binding. Read a high Kd as a looser complex.

In the assay the target is SLBR-N (SLBRUB10712) (Streptococcus mitis, UniProt A0A6I8WFK9). The experiment in a line: ITC. The following applies: single-site binding model.
SLBR-N (SLBRUB10712), sequence (A0A6I8WFK9 entry or part of it): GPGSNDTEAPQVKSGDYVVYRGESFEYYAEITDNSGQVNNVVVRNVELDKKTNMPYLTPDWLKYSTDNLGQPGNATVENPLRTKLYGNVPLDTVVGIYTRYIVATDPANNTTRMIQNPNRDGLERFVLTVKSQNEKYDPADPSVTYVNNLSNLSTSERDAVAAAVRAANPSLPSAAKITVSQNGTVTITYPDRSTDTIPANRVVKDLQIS

As for `CC(=O)N[C@H]1[C@H](OC[C@H]2O[C@H](O[C@H](C)[C@H](N)C(=O)O)[C@H](NC(C)=O)[C@@H](O[C@@H]3O[C@H](CO)[C@H](O)[C@H](O[C@]4(C(=O)O)C[C@H](O)[C@@H](NC(C)=O)[C@H]([C@H](O)[C@H](O)CO)O4)[C@H]3O)[C@H]2O)O[C@H](CO)[C@@H](O[C@@H]2O[C@H](CO)[C@H](O)[C@H](O[C@]3(C(=O)O)C[C@H](O)[C@@H](NC(C)=O)[C@H]([C@H](O)[C@H](O)CO)O3)[C@H]2O)[C@@H]1O` [compound 5, ligand 5], binding was put at a Kd of 15.1 ± 1.13 µM.
